Results reported in patent US20160184335A1, “ANTITUMOR AGENT” (KAKUI, CO., LTD., priority 2012, published 2016).
Like-named read-outs stand apart in the source and are kept apart here.

Assays:
[1] = system: HeLa (human cervical cancer-derived cell line); assay: XTT assay, effect on cell survival (HeLa); type: cell-based
From the text: (§1) The presence or the absence of the selective cytotoxic activity of the test substance (cellobiose) was examined on various established cell lines.
(§2) Cell species: HeLa (human cervical cancer-derived cell line), HaCaT (human-derived immortalized keratinocyte) and Hep-G2 (human liver cancer-derived cell line)
(§3) (Thawing and Passage Culture of Cells) • (1) HeLa, HaCaT, and Hep-G2 cells were thawed and then cultured in various specialized media. • (2) Cells were passaged 2 to 3 times. • (3) Cells that had recovered their growth capacity were used for the test. […]

[2] = system: Hep-G2 (human liver cancer-derived cell line); assay: XTT assay, effect on cell survival (Hep-G2); type: cell-based
From the text: as §1, §2, §3

[3] = system: DMBA-induced breast cancer; type: in vivo; conditions: for changes in body weight: vs control; for general conditions: deaths: 15 rats; for day from which development of tumors was confirmed: control: day 35
Procedure: The antitumor effects of cellobiose were examined using the rat DMBA-induced breast cancer model. Specifically, 7-week-old female rats were grouped using body weight as an index, and then 7,12-dimethylbenz[a]anthracene (DMBA) (20 mg/mL/rat) was forcibly administered orally. Two doses of the test substance (4 and 40 mg/kg/day) were forcibly administered orally once a day from the day after grouping for 12 consecutive weeks.
Fifty-two 6-week-old female rats, Crl: CD (SD) (SPF), were purchased from Charles River Laboratories, Japan Inc. on Mar. 28, 2012 (Number of rats ordered: 50).
Animals, for which no abnormalities had been confirmed as a result of observation of general conditions during the quarantine and conditioning periods, were selected and then grouped by the stratified continuous randomization method using body weight as an index based on the following table of group composition (Table 1). The remaining animals were excluded from the test groups on the day of grouping and then disposed of after excessive euthanization with ether.
DMBA was weighed to the required amount using an electronic even Sartorius Laboratory balance (SARTORIUS K.K.). The weighed DMBA was added to a beaker containing sesame oil, and then the solution was stirred using a mighty magnetic stirrer (Koike precision instruments) until the DMBA was completely dissolved. After dissolution, the solution was transferred to a volumetric graduated cylinder and then diluted to a concentration of 20 mg/mL. Upon preparation, countermeasures were taken against chemical hazards to avoid inhalation and adhesion to skin by wearing masks, safety eyeglasses, and gloves. Preparation was performed before use. Any carcinogen remaining after administration was treated as medical waste.
The carcinogen was administered to each animal after grouping. Specifically, the carcinogen was forcibly administered orally at a dosage of 1 mL/animal using sonde for oral administration (disposable sonde for oral administration, FUCHIGAMI) and glass syringes (disposable syringes, TERUMO Corporation). Administration was performed using masks, safety eyeglasses and gloves in order to avoid inhalation and adhesion to skin.
Next, the test substance was weighed to the required amount using an electronic Sartorius Analytic balance (SARTORIUS K.K.), and then dissolved in the medium. The resultant was transferred to a volumetric graduated cylinder, and then diluted to concentrations of 0.8 mg/mL and 8.0 mg/mL. Preparation was performed before use. The solution of the test substance (to be administered) that had remained after administration was diluted with a large volume of tap water and then discarded.
Administration of the test substance began the day after grouping (designated as day 1). The test substance was forcibly administered orally once a day for 12 consecutive weeks.
Upon administration, the test substance solution was forcibly administered orally at 5 mL/kg/day using sonde for oral administration (disposable sonde for oral administration, FUCHIGAMI) and glass syringes (disposable syringes, TERUMO Corporation) according to the table of group composition. The fluid volume administered was calculated based on the body weight measured on the day closest to the date of administration.
After administration of the carcinogen, the general conditions were observed every day. Body weight was measured once a week.
When the development of tumors was confirmed, the number of tumors developed in each animal was measured, and then the tumor volume estimate (mm^3) of each tumor was calculated once a week. In addition, the tumor volume estimate (mm^3) of each tumor was found by shaving the hair around the relevant tumor, measuring the tumor size (major axis “a” and minor axis “b” (mm)) using a vernier caliper, calculating according to the following formula, and then finding the sum of tumor volume estimates of the tumors.
Tumor volume estimate (mm^3) of each tumor=0.5 ×a×b^2 […]

[4] = system: HaCaT (human-derived immortalized keratinocyte); assay: XTT assay, effect on cell survival (HaCaT); type: cell-based
From the text: as §1, §2, §3

HeLa cells = assay: Confirmation of the performance of cell proliferation kit (XTT) with HeLa; type: cell-based, human; conditions: 500 μM, 3 hours
Procedure: (Confirmation of the Performance of Cell Proliferation Kit (XTT)) • (1) HeLa cells were seeded in 16 wells of a 96-well plate at 1×10^4 cells/100 μL/well. • (2) Cells were cultured for 24 hours in a CO2 incubator. • (3) Dexamethasone was added at […] concentrations of 0 (control), 10, 100, and 500 μM (N=4). • (4) After addition, cells were cultured for 3 hours in the CO2 incubator. • (5) 50 μL of an XTT reagent was added. • (6) After addition, cells were cultured for 3 hours in the CO2 incubator. • (7) Absorbance was measured at 450 nm to 500 nm (ref.: 630 nm to 690 nm).

[5] = any concentration (0.001-10 mg/mL), vs cells before addition

O=C[C@H](O)[C@@H](O)[C@H](O[C@@H]1O[C@H](CO)[C@@H](O)[C@H](O)[C@H]1O)[C@H](O)CO [cellobiose]
change in survival rate compared to the control ([1]; 10 mg/mL, 3 hours, XTT): almost no change in survival rate | dead cells or cell morphological changes (photomicrographs) [1, 5]: no influence of other factors such as an increase in dead cells or cell morphological changes | dead cells or cell morphological changes (photomicrographs) ([2]; Hep-G2, any concentration (0.001-10 mg/mL), vs cells before addition): no influence of other factors such as an increase in dead cells or cell morphological changes | decrease in survival rate (maximum) ([2]; Hep-G2, high concentration of test substance, 3 hours, XTT): ~15% | effect on development of breast cancer induced by DMBA (overall conclusion) ([3]; 4 and 40 mg/kg/day oral, 12 weeks): suppresses the development of breast cancer that is induced by carcinogenic DMBA | changes in body weight ([3]; high-dose group 40 mg/kg/day oral once a day, 12 weeks): very similar changes to the control group | general conditions: deaths ([3]; high-dose group 40 mg/kg/day oral): one death was confirmed on day 76 | day from which development of tumors was confirmed ([3]; high-dose group 40 mg/kg/day): 49 days | number of animals having developed tumors ([3]; high-dose group 40 mg/kg/day, day 49): 2 | number of animals having developed tumors ([3]; high-dose group 40 mg/kg/day, day 84): 11 | tumor volume estimate vs control ([3]; high-dose group 40 mg/kg/day, days 42 and 49): significantly lower than those of the control group | number of animals having developed tumors ([3]; high-dose group 40 mg/kg/day, until day 42): no development of tumors was confirmed until day 42 | changes in body weight ([3]; low-dose group 4 mg/kg/day oral once a day, 12 weeks): very similar changes to the control group | general conditions: deaths ([3]; low-dose group 4 mg/kg/day oral): one death was confirmed on day 4 | wet weight of tumor vs control ([3]; low-dose group 4 mg/kg/day, autopsy after 12 weeks): very similar to those of the control group | day from which development of tumors was confirmed ([3]; low-dose group 4 mg/kg/day): 49 days | tumor volume estimate vs control ([3]; low-dose group 4 mg/kg/day, day 42): significantly lower than those of the control group | number of animals having developed tumors ([3]; low-dose group 4 mg/kg/day, day 49): 4 | number of animals having developed tumors ([3]; low-dose group 4 mg/kg/day, day 84): 11 | number of animals having developed tumors ([3]; low-dose group 4 mg/kg/day, until day 42): no development of tumors was confirmed until day 42 | change in survival rate compared to the control ([4]; 10 mg/mL, 3 hours, XTT): almost no change in survival rate | dead cells or cell morphological changes (photomicrographs) [4, 5]: no influence of other factors such as an increase in dead cells or cell morphological changes

C[C@@H]1C[C@H]2[C@@H]3CCC4=CC(=O)C=C[C@]4(C)[C@@]3(F)[C@@H](O)C[C@]2(C)[C@@]1(O)C(=O)CO [dexamethasone]
decrease in survival rate (HeLa cells): about 40%
